Literature values, collected in patent US20190015445A1, “INJECTION […] DIOXIDE AND METHOD FOR MAKING SAME” (priority 2016, published 2019).
Where two headings read alike, the source gives them in different places.

## [O][Cl+][O-] [chlorine dioxide]
At 20° C., aqueous solution
  solubility of chlorine dioxide: about 2.9 g/L
At room temperature
  solubility of chlorine dioxide: 2900 µg/mL
